According to publication PMC8273887 (Journal of Medicinal Chemistry, 2021):
Entries after “also recorded” stand apart in the source; their conditions may differ. Bridge positions count the residues as written; N and C are the ends. Ends that are not written are not given here.

Tests used:
[1] = Stability in simulated intestinal fluid (SIF); format: in vitro ADME; conditions: pig, simulated intestinal fluid (SIF) with porcine pancreatin, pH 6.8, 15 μL of 1 mM peptide stock in 285 μL SIF, 37 °C, samples 0 min-24 h quenched with 5% aqueous TFA, RP-HPLC/LC-MS peak area as % of time 0, exponential one-phase decay fit, read-out: t1/2 in SIF
Experimental: (§1) We exposed TFF3(C^57Acm) and TFF3 homodimer to simulated gastric fluid (SGF, containing pepsin, pH 1.3) and simulated intestinal fluid (SIF, containing pancreatic enzymes, pH 6.8), and monitored the mixture over 24 h by analytical RP-HPLC and MS. The N- and C-termini of TFF3 and its homodimer were readily truncated in both SGF and SIF (Figure 4A,B). In SGF, TFF3 was cleaved at Leu^6/Ser^7 followed by cleavage at Glu^54/Ala^55 (t1/2 < 5 min). In SIF, TFF3 was cleaved first at Thr^58/Phe^59 followed by cleavage at Leu^6/Ser^7, Glu^56/Cys^57, and Ala^55/Glu^56 (t1/2 < 5 min). TFF3 homodimer, in both SGF (t1/2 ∼ 40 min) and SIF (t1/2 < 5 min), was first broken down to monomeric TFF3 through simultaneous cleavage at Leu^6 and Glu^54 or Ala^55, eventually leading to the same metabolites as TFF3 (Figure 4B).
(§2) Simulated gastric fluid (SGF) was prepared by dissolving 20 mg of NaCl and 8 mg of pepsin in 70 μL of concentrated HCl (32%), and the volume was diluted to 10 mL with Milli-Q water (pH 1.3).[76],[77] Simulated intestinal fluid (SIF) was prepared by dissolving 68 mg of KH2PO4 in 500 μL of Milli-Q water followed by the addition of 800 μL of 0.2 M NaOH and 100 mg of porcine pancreatin, and the volume was adjusted to 10 mL with Milli-Q water (pH 6.8).[76],[77] Peptide stock solution (1 mM; 15 μL) was added to SGF (285 μL) or SIF (285 μL) and incubated at 37 °C. Samples (30 μL) from SGF and SIF were taken at 0, 5, 15, and 30 min and 1, 2, 4, 8, and 24 h timepoints and subsequently quenched with 30 μL of 0.2 M Na2CO3 (SGF) or 30 μL of 5% aqueous TFA (SIF). The samples were analyzed by analytical RP-HPLC (30 μL) and/or LC-MS (20 μL). The amount of peptide remaining was determined by measuring the peak area and expressing it as a % of the peak area at time 0. Peptide half-life (t1/2) was determined from the peptide degradation profiles using an exponential one-phase decay fit in Prism (version 7, GraphPad, La Jolla). LC-MS analysis was performed in a Q-Star Pulsar mass spectrometer (SCIEX, Ontario, Canada), and the raw data spectra were processed using the peptide reconstruction tool in the BioAnalyst software to identify the mass of the metabolites. The stability of the disulfide bonds was assessed through incubation of the peptides (10 μM) with 10 equiv of reduced glutathione (GSH; 100 μM) in sodium phosphate (50 mM) buffer at pH 7.2. Samples were taken at timepoints 0, 4, 8, and 24 h, quenched by adding 10% TFA, and analyzed by analytical RP-HPLC using an analytical C3 column (Agilent Zorbax SB-C3, 5 μm, 2.1 mm × 250 mm, 300 Å).

[2] = Stability in simulated gastric fluid (SGF); format: in vitro ADME, porcine; conditions: SGF with pepsin, pH 1.3, 37 °C, 24 h; RP-HPLC and MS
Experimental: as §1, §2

trypsin = conditions: incubated with trypsin; fragments identified
Source text: We then synthesized the trefoil domain (TFF3_10-50, single-chain assembly via Fmoc-SPPS) to investigate its gut stability. We acetylated the N-terminus (Gln^10) of the trefoil domain to prevent the formation of pyroglutamic acid.

human saliva = conditions: cited from earlier work
pepsin = assay: simulated gastric fluid (SGF, containing pepsin, pH 1.3); conditions: porcine, 37 °C, up to 24 h
porcine pancreatin = assay: simulated intestinal fluid (SIF, containing pancreatic enzymes, pH 6.8); conditions: 37 °C, up to 24 h
CXCR4 = molecular target: T1, CXCR4 (Homo sapiens, UniProt P61073); assay: Inositol 1 phosphate (IP1) accumulation assay (HTRF) in COS-7 cells transfected with CXCR4; format: cell-based; conditions: 5 min preincubation with peptide (1 or 10 μM final), then CXCL12 10^-12 to 10^-5 M; COS-7/CXCR4; IP1 HTRF
T1 construct: expressed in transfected cells; host or cells: COS-7 (African green monkey), transient co-transfection with GαΔ6qi4myr
Source text: CXCR4 is a member of the G protein-coupled receptor (GPCR) family[58] and proposed as a target receptor for TFF3 to mediate wound healing.[30],[39] We therefore pharmacologically characterized TFF3(C^57Acm) and TFF3 homodimer at CXCR4. We used a chimeric Gαiq protein to switch the pathway to the Gαq signaling, which leads to the activation of the phospholipase and allows measurement of CXCR4 activation through the production of inositol 1 phosphate (IP1).[61]−[63] We measured IP1 accumulation upon stimulation with TFF3(C^57Acm) and TFF3 homodimer in fibroblast-like COS-7 cells transiently transfected with CXCR4.[58] This is a competitive immunoassay, based on the HTRF technology, where native IP1 produced by cells compete with labeled IP1 (acceptor) for binding to anti-IP1-cryptate (donor). The specific signal (i.e., Förster resonance energy transfer, FRET) is inversely proportional to the concentration of IP1 in the sample. The calculation of the fluorescence ratio eliminates possible medium interferences.[64]
COS-7 cells (fibroblast-like cells from African green monkey) were transiently co-transfected with the CXCR4 C-terminally fused to eYFP in pVitro2 vector and the untagged chimeric G protein GαΔ6qi4myr in pcDNA3.1 plasmid using Metafectene Pro according to manufacturer’s protocol. The cells were cultured in DMEM with higher glucose and supplemented with 10% FCS without any antibiotics at 37 °C and 5% CO2 in 95% humidity. Cisbio IP-One Gq assay kit was used according to previous description with minor modifications to measure activity.[80] Briefly, a standard curve was prepared in HBSS (Hanks’ balanced salt solution) with 20 mM LiCl to determine the linear range of the assay and 10 000 cells/well were cultured overnight in a 384-well flat white plate (Greiner Bio-one GmbH, Frickenhausen, Germany). TFF3 and its homodimer as well as CXCL12 were diluted in HBSS containing 20 mM LiCl. Stimulation was carried out for 1 h in triplicate at 37 °C. Subsequently, 3 μL of IP1-d2 and 3 μL of Ab-cryptate in lysis buffer were added to the wells and incubated on a tumbler for 60 min at 25 °C. Fluorescence was then measured at 620 and 665 nm and the HTRF (homogeneous time-resolved fluorescence) ratio (665/620 nm) was calculated. Data analysis was performed with Prism (version 7, GraphPad, La Jolla). Tested compounds were normalized to CXCL12 wild type, with the highest HTRF ratio set to 0% and the lowest HTRF ratio set to 100% response. […] The final concentration range of 10^–12 to 10^–5 M to CXCL12 and 1 or 10 μM to TFF3(C^57Acm) and TFF3 homodimer was achieved by adding the compounds from a threefold concentrated stock solution.

[3] = Stability of disulfide bonds with reduced glutathione (GSH); format: physicochemical; conditions: peptide 10 μM, 10 equiv reduced glutathione (100 μM), 50 mM sodium phosphate buffer pH 7.2; timepoints 0, 4, 8, 24 h; analytical C3 RP-HPLC
Source text: In certain physiological environments, disulfide bonds are prone to scrambling or reductive cleavage, thereby affecting peptide integrity.[67] Thus, we also evaluated the stability of the disulfide bonds of TFF3 in the presence of 10 equivalents of reduced glutathione (GSH) at pH 7 by time-course analytical RP-HPLC. […] While this was expected for the relatively buried disulfide bonds within the trefoil domain (TFF3_10-50), it highlights that also the disulfide bond outside of the trefoil domain is well protected.
Simulated gastric fluid (SGF) was prepared by dissolving 20 mg of NaCl and 8 mg of pepsin in 70 μL of concentrated HCl (32%), and the volume was diluted to 10 mL with Milli-Q water (pH 1.3).[76],[77] […] The samples were analyzed by analytical RP-HPLC (30 μL) and/or LC-MS (20 μL). The amount of peptide remaining was determined by measuring the peak area and expressing it as a % of the peak area at time 0. Peptide half-life (t1/2) was determined from the peptide degradation profiles using an exponential one-phase decay fit in Prism (version 7, GraphPad, La Jolla). […] The stability of the disulfide bonds was assessed through incubation of the peptides (10 μM) with 10 equiv of reduced glutathione (GSH; 100 μM) in sodium phosphate (50 mM) buffer at pH 7.2. […]

T1 sequence (P61073 whole entry): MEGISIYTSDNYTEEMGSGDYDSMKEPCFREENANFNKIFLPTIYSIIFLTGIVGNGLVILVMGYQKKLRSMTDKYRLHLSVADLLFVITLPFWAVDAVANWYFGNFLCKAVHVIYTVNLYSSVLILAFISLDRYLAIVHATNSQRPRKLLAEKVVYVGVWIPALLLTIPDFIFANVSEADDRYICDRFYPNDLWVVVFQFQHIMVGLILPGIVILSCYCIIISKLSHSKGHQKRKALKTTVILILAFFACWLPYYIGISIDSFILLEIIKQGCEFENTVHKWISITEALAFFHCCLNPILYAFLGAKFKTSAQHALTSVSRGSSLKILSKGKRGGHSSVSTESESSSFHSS

Q: With “Ac-QCAVPAKDRVDCGYPHVTPKECNNRGCCFDSRIPGVPWCFK-NH2 (disulfide 2-28, 12-27, 22-39) [TFF3_10-50]” as the substance, how does the half-life at 50 μM [1] read?
A: < 30 min

Q: What about the “stability in SGF over 24 h (in words)” value [2] of the same substance?
A: stable

Q: What about the “cleavage sites on incubation with trypsin” value (trypsin) of the same substance?
A: cleavages at Lys^16, Arg^18, and Arg^41

Q: For “EEYVGLSANQCAVPAKDRVDCGYPHVTPKECNNRGCCFDSRIPGVPWCFKPLQEAECTF”, which cleaved bond (human saliva) is on record?
A: Thr58-Phe59

Q: What about the cleaved bond (pepsin) of the same substance?
A: Leu6-Ser7, first_seen; also recorded: Glu54-Ala55, first_seen; also recorded: Ala55-Glu56, first_seen

Q: And the cleaved bond (porcine pancreatin)?
A: Leu6-Ser7, first_seen

Q: What about the fragment found (porcine pancreatin) of the same substance?
A: S^7ANQCAVPAKDRVDCGYPHVTPKECNNRGCCFDSRIPGVPWCFKPLQEAE^56

Q: Which results are given for “TFF3: 59-residue trefoil factor 3 peptide, three intrachain disulfide bonds, free Cys^57; chemically synthesized by native chemical ligation (EEYVGLSANQCAVPAKDRVDCGYPHVTPKECNNRGCCFDSRIPGVPWCFKPLQEAECTF; disulfide 11-37, 21-36, 31-48)”?
A: effect on the EC50 of CXCL12 at CXCR4 (antagonism) (CXCR4): not affected; disulfide bond reduction or scrambling in presence of GSH [3]: No disulfide bond reduction or scrambling was observed
